Paper PMC8661032, “Broad-Spectrum Antibacterial Peptide Kills Extracellular and Intracellular Bacteria Without Affecting Epithelialization” (Frontiers in Microbiology, 2021)
In brackets after ≈: the same amount, converted by molar mass. Residues, ends and D or L forms follow the SMILES beside them.

Key:
P. aeruginosa = experiment: microbe, parasite or virus in culture; settings: for MIC: Pseudomonas aeruginosa
Method: (§1) Briefly, bacterial colonies from blood agar plates were suspended and grown in Cation-Adjusted Mueller-Hinton Broth (CAMHB, […] Ca^2+, […] Mg^2+). The bacterial suspension was adjusted to 0.5 McFarland standard (∼1 × 10^8 colony-forming units (CFU)/ml) and serial diluted 1:200 in CAMHB (∼5 × 10^5 CFU/mL). […] The suspension was plated out on blood agar plates to confirm the CFU/ml. Both the microtiter plates and the blood agar plates were incubated at 37°C for 24 h.

A. baumannii = experiment: microbe, parasite or virus in culture; settings: for MIC: Acinetobacter baumannii
Method: as §1

E. coli [1] = experiment: microbe, parasite or virus in culture; settings: K-12 MG1655; CLSI broth microdilution, CAMHB, 37°C, 24 h, visible growth; net peptide concentration
Method: as §1

HEK293 cells = test system: HEK293 cells
Method: HEK293 cells (6,000 cells/well) were seeded in 96-well microtiter plates. After 4 h, APIM-peptides (12–48 μg/ml) were added, and the cells were incubated without change of media for up to 4 days. Viability was measured using the 3-(4,5-dimethylthiazol-2-yl)-2,5-diphenyltetrazolium bromide (MTT) assay as described ([Gilljam et al., 2009]).
(1 picture or pasted object on this page, not shown here)

E. coli [2] = experiment: Growth inhibition assay (OD600 over 24 h); format: cell-based, Escherichia coli; design: Reduction of viability E. coli (60 μg/ml): key to the marks not given beside the values; settings: LB medium
Method: An overnight culture of Escherichia coli was diluted 1:100 in Luria-Bertani (LB) medium and allowed to grow until an optical density (OD) at 600 nm (OD600) of 0.06–0.1. APIM-peptides were prepared by serial dilution in Milli-Q H2O and kept at 4°C. Fresh LB medium (60 μl) was added to a flat-bottom microtiter plate. The bacterial suspension was diluted 1:100 in LB, and 75 μl of this suspension was added to the wells. Finally, 15 μl of APIM-peptide solution (to final concentrations 60, 120, and 240 μg/ml) or distilled water (positive control) was added to the wells, reaching a total volume of 150 μl per well. Data are presented only for the dose that separated the effect of the different peptides, i.e., 60 μg/ml. A blank sterile medium was used as negative control. The plates were incubated with shaking at 510 rpm at 37°C inside a plate reader (TECAN, Spark®), and OD was read every hour over a period of 24 h.
The MIC for E. coli in LB medium is higher than that in CAMHB; thus, concentrations higher than the MIC given in Table 2 are used in the growth inhibition and mutagenesis assays. […]
E. coli. Growth of E. coli in LB medium over 24 hours (Optical Density (OD) 600 nm) after addition
of APIM-peptide variants 1-5 (60 µg/mL) at time t=0 (see Table 2). Negative (-) control is no
bacteria added, positive (+) control is untreated bacteria.
highest inhibition of growth.
control (black filled line).

[3] = test system: S. epidermidis MRSE (SO-SEP9-1); settings: SO-SEP9-1, 24 h
Method: as §1

E. coli [4] = experiment: Rifampicin (RifR) mutagenesis assay after UV-C; format: cell-based, Escherichia coli; settings: 20 μg/ml peptide, UV-C 20 mJ/cm^2, RifR assay, relative to untreated control
Method: The rifampicin (Rif^R) mutagenesis assay was performed as described ([Nedal et al., 2020]). Briefly, an overnight culture of E. coli was diluted 1:1,000 and grown until an OD600 of 0.01. APIM-peptides (20 μg/ml) were added to LB media with glass beads (for uniform distribution of APIM-peptides) and incubated for 30 min at 37°C. The pellets were next collected, resuspended in 500 μl PBS, and exposed to UV-C (20 mJ/cm^2) in a six-well plate at 4°C. The unexposed bacteria (-UV) were otherwise handled exactly like the UV-exposed bacteria. Next, the cells were resuspended in LB media and incubated in a rotary shaker at 37°C at 250 rpm for 2 h before being harvested, diluted, and plated on LB with soft agar with and without rifampicin (100 μg/ml). Mutation frequency, Rif^R/10^8, is obtained as follows: (number of colonies on the rifampicin plate (Rif^R)/(number of colonies on LB plates without antibiotics), per milliliter of bacterial suspension. […]
mutagenesis in E. coli more efficiently than the other peptide variants.
Increase in mutation frequencies after treatment with UV-C (20 mJ/cm2) relative to spontaneous mutations frequencies using the RifR assay were determined. This increase is set to 100% for untreated control, and % reduction after addition of peptides 1-5 (20 μg/mL) are shown. Mean ± SD from three independent experiments. * p<0.05, ** p<0.005

S. aureus = experiment: microbe, parasite or virus in culture; settings: for MIC: Staphylococcus aureus, CAMHB, 24 h, three independent experiments
Method: as §1

[5] = ATCC29213, 24 h, Reference strain ATCC 29213
[6] = MRSA, Clinical isolate SO-SAU19-1 (MRSA)

SMILES | MIC E. coli (E. coli [1]) | MIC S. epidermidis MRSE [3] | Combination effect with 0.5× MIC betatide (S. aureus; ATCC 29213) | Combination effect with 0.5× MIC betatide (S. aureus; SO-SAU19-1 (MRSA)) | MIC (S. aureus; [5]) | MIC (S. aureus; [6]) | other results
C[C@@H](O)[C@H]1C(=O)N2C(C(=O)O)=C(S[C@@H]3CN[C@H](C(=O)N(C)C)C3)[C@H](C)[C@H]12 [Meropenem, meropenem] |  |  |  |  |  |  | Combination effect with 0.5× MIC betatide (P. aeruginosa; ATCC 27853): None; MIC (P. aeruginosa; 24 h): 64 µg/mL (≈ 167 µM); MIC (P. aeruginosa; ATCC27853, 24 h): 0.5 µg/mL (≈ 1.3 µM); Combination effect with 0.5× MIC betatide (P. aeruginosa; SO-PAE19-1 (multidrug resistant)): Additive 2×; Combination effect with 0.5× MIC betatide (A. baumannii; ATCC 19606): None; MIC (A. baumannii; 24 h): 512 µg/mL (≈ 1340 µM); MIC (A. baumannii; ATCC19606, 24 h): 4 µg/mL (≈ 10.4 µM); Combination effect with 0.5× MIC betatide (A. baumannii; SO-ABA19-1 (ESBL-CARBA-D)): None
CC[C@H](C)[C@H](NC(=O)[C@H](CCCCN)NC(=O)[C@H](CCCNC(=N)N)NC(=O)[C@H](CCCCN)NC(=O)[C@H](CCCCN)NC(=O)[C@H](CCCCN)NC(=O)[C@H](Cc1c[nH]c2ccccc12)NC(=O)[C@H](CCCCN)NC(=O)[C@@H](NC(=O)[C@H](CC(C)C)NC(=O)[C@H](Cc1c[nH]c2ccccc12)NC(=O)[C@H](CCCNC(=N)N)NC(=O)[C@H](CC(=O)O)NC(=O)[C@H](CCSC)NC(C)=O)C(C)C)C(=O)N[C@@H](CCCNC(=N)N)C(=O)N[C@@H](CCCNC(=N)N)C(=O)N[C@@H](CCCNC(=N)N)C(=O)N[C@@H](CCCNC(=N)N)C(=O)N[C@@H](CCCNC(=N)N)C(=O)N[C@@H](CCCNC(=N)N)C(=O)N[C@@H](CCCNC(=N)N)C(=O)N[C@@H](CCCNC(=N)N)C(=O)N[C@@H](CCCNC(=N)N)C(=O)N[C@@H](CCCNC(=N)N)C(=O)N[C@@H](CCCNC(=N)N)C(N)=O [Peptide 1] (Ac-MDRWLVKWKKKRKIRRRRRRRRRRR-NH2) | 32 µg/mL (≈ 8.71 µM) | 32 µg/mL (≈ 8.71 µM) |  |  |  |  | Reduction of viability HEK293 (24 μg/ml) (HEK293 cells): +; inhibition of growth of E. coli (OD 600 nm) (E. coli [2]; 60 µg/mL, over 24 hours, Supplementary Figure S1): least efficient; Reduction of mutation frequency E. coli (20 μg/ml) (E. coli [4]): +
COc1cccc(OC)c1C(=O)N[C@@H]1C(=O)N2[C@@H]1SC(C)(C)[C@@H]2C(=O)O [Methicillin, methicillin] |  |  | Additive 2× | Additive 4× | 1 µg/mL (≈ 2.63 µM) | 8 µg/mL (≈ 21 µM) | 
CO[C@@]1(NC(=O)Cc2cccs2)C(=O)N2C(C(=O)O)=C(COC(N)=O)CS[C@@H]21 [Cefoxitin, cefoxitin] |  |  | None | Additive 2× | 4 µg/mL (≈ 9.36 µM) | 32 µg/mL (≈ 74.9 µM) | 
CC[C@H](C)[C@H](NC(=O)CNC(=O)[C@H](CCCCN)NC(=O)[C@@H](NC(=O)[C@H](CC(C)C)NC(=O)[C@H](Cc1c[nH]c2ccccc12)NC(=O)[C@H](CCCNC(=N)N)NC(=O)[C@H](CC(=O)O)NC(=O)[C@H](CCSC)NC(C)=O)C(C)C)C(=O)N[C@@H](CC(C)C)C(=O)N[C@@H](CCC(N)=O)C(=O)N[C@@H](Cc1c[nH]c2ccccc12)C(=O)N[C@@H](CCCNC(=N)N)C(=O)N[C@@H](CCCCN)C(=O)N[C@H](C(=O)N[C@@H](CCCNC(=N)N)C(=O)N[C@@H](CCCNC(=N)N)C(=O)N[C@@H](CCCNC(=N)N)C(=O)N[C@@H](CCCNC(=N)N)C(=O)N[C@@H](CCCNC(=N)N)C(=O)N[C@@H](CCCNC(=N)N)C(=O)N[C@@H](CCCNC(=N)N)C(=O)N[C@@H](CCCNC(=N)N)C(=O)N[C@@H](CCCNC(=N)N)C(N)=O)[C@@H](C)CC [Peptide 4] (Ac-MDRWLVKGILQWRKIRRRRRRRRR-NH2) | 32 µg/mL (≈ 9.44 µM) | 16 µg/mL (≈ 4.72 µM) |  |  |  |  | Reduction of viability E. coli (60 μg/ml) (E. coli [2]; 60 μg/ml peptide, OD600 every hour over 24 h, relative to untreated control): ++
